In patent US6599917B1, “Quinuclidine compounds and drugs containing the same as the active ingredient” (priority 1999, dated 2003) one finds IC50 and inhibition in vivo data, which are given here for 15 compounds.

Broadly, the IC50 is the concentration that gives 50% inhibition. Read a high IC50 as weaker potency. In general, inhibition in vivo refers to how much of the control response was suppressed. A higher inhibition in vivo goes with a strong effect.

One experiment addresses T1, squalene synthesizing enzyme (Rattus norvegicus, UniProt Q02769).
T1 construct: The liver was excised from a male Spraugue-Dawly rat; from tissue; host or cells: liver microsome fraction of male Sprague-Dawley rat (8 to 9 weeks)
T1 sequence (Q02769 1-416): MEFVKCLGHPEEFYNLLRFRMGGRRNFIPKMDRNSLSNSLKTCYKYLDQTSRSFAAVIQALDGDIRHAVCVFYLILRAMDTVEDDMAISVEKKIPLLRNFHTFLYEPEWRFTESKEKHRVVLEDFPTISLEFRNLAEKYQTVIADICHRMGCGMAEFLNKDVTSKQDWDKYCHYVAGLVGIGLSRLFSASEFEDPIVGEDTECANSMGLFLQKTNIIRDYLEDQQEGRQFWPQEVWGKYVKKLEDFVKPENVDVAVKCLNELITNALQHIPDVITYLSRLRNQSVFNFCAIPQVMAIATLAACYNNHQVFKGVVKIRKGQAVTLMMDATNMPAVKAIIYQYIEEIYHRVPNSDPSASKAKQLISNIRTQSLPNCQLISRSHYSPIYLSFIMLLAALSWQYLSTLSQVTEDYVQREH
Briefly: Measurement of squalene synthesizing enzyme inhibitive activity by using a rat liver microsome. It counts as biochemical. Conditions: [3H]-farnesylpyrophosphoric acid. The method, then: Measurement of Squalene Synthesizing Enzyme Inhibitive Activity by Using a Rat Liver Microsome
(I) The reaction was run on a scale of 500 μ1. 200 µl of a solution containing 125 mM tris-hydrochloric acid (pH: 7.3), 2.5 mM magnesium chloride, 5 mM potassium fluoride and 10 mM reduction type nicotinamidoadenine dinucleotide phosphoric acid, 100 µl of the specimen solution with a 5-fold concentration, 100 µl of distilled water and 50 µl of 0.4 to 1 mg/ml rat liver microsome prepared by the following method were mixed.
(II) The above mixture was pre-incubated at 37° C. for 10 minutes and thereafter, 50 µl of 100 μM [^3H]-farnesylpyrophosphoric acid (30 mCi/mmol, NEN) was added to the mixture to start a reaction. The reaction was continued at 37° C. for 10 minutes. 1 ml of ethanol was added to the resulting mixture to terminate the reaction and then 1 ml of distilled water and 3 ml of petroleum ether were added to the reaction solution, which was then shaken for 30 minutes. The water phase was separated from the oil phase, the water phase was frozen at −70° C. in dry ice/methanol and the radiative activity of the organic phase was measured using a liquid scintillator. Or the organic phase was evaporated to dryness using nitrogen gas and the residue was dissolved as a marker in 25 µl of chloroform containing squalene, farnesol and cholesterol. This sample was spotted on a TCL plate (Merck) and developed using heptane for 15 to 20 minutes. A band of squalene was cut from the plate to measure the radiative activity by using a liquid scintillation counter. The data was expressed by a concentration (IC50) at which 50% of the radiative activity of a control group was inhibited.
Method of the Preparation of a Rat Liver Microsome
The following operations were all carried out on ice and the centrifugation was performed at 4° C. The liver was excised from a male Spraugue-Dawly rat (hereinafter referred to as SD rat) (8 to 9 weeks age) and perfused with 1.15% potassium chloride to remove the blood. Then, the liver was minced using a forceps and the minced liver was homogenized using a Teflon homogenizer. The resulting sample was centrifuged at 16000×g twice for 15 minutes. The supernatant was further centrifuged at 105000×g for 60 minutes. The obtained deposit was determined as a microsome fraction, which was then suspended in a 25 mM tris-hydrochloric acid solution. The concentration of protein was measured quantitatively by a Bradford method and the concentration of protein was adjusted to 20 mg/ml by using the same solution. The resulting solution was stored at […].
With “3-[4-Benzyl-2-(3-pyridyl)-5-pyridyl]ethynyl-3-quinuclidinol [Example 18]”, the IC50 stood at 25 nM.
Same read-out and setting: the same measure for `OC1(C#Cc2cnc(-c3ccc4c(c3)OCO4)cc2Cc2ccccc2)CN2CCC1CC2` (stereo not drawn) [Example 1, 3-[4-Benzyl-2-(3,4-methylenedioxyphenyl)-5-pyridyl]ethynyl-3-quinuclidinol]: 10 nM; for `OC1(C#Cc2cnc(-c3ccccn3)cc2Cc2ccccc2)CN2CCC1CC2` (stereo not drawn) [Example 2, 3-[4-Benzyl-2-(2-pyridyl)-5-pyridyl]ethynyl-3-quinuclidinol]: 20 nM.
As to `COC1CCN(c2ccc(C#CC3(O)CN4CCC3CC4)c(Cc3ccccc3)n2)CC1` (stereo not drawn) [Example 9, 3-[2-Benzyl-6-(4-methoxypiperidino)-3-pyridyl)ethynyl-3-quinuclidinol], the IC50 was found to be 34 nM.
The same measure, in the same setting: the same measure for `CO[C@@H]1CN(c2ccc(C#C[C@@]3(O)CN4CCC3CC4)c(Cc3ccccc3)n2)C[C@H]1O` [Example 10, (3R)-3-[2-Benzyl-6-[(3R,4R)-3-hydroxy-4-methoxypyrrolidine-1-yl]-3-pyridyl)ethynyl-3-quinuclidinol]: 2 nM.
On the same count and under the same terms, for `OC1(C#Cc2cnc(-c3ccc4c(c3)OCO4)nc2Cc2ccccc2)CN2CCC1CC2` (stereo not drawn) [Example 19, 3-[4-Benzyl-2-(3,4-methylenedioxyphenyl)-5-pyrimidyl]ethynyl-3-quinuclidinol] the value was 10 nM; for `O[C@]1(C#Cc2cc(Cl)c(N3CCC4(C3)OCCO4)nc2Cc2ccccc2)CN2CCC1CC2` [Example 119, (3R)-3-[2-Benzyl-5-chloro-6-(3,3-ethylenedioxypyrrolidine-1-yl)-3-pyridyl]ethynyl-3-quinuclidinol], 3.9 nM; for `CO[C@@H]1CCN(c2ccc(C#C[C@@]3(O)CN4CCC3CC4)c(Cc3ccccc3)n2)C1=O` [Example 144, (3R)-3-[2-Benzyl-6-[(3R)-3-methoxy-2-pyrrolidinone-1-yl]-3-pyridyl]ethynyl-3-quinuclidinol], 2.6 nM.
On the same count and under the same terms, the same measure for `O[C@]1(C#Cc2cnc(-c3ccc4c(c3)OCO4)cc2Cc2ccccc2)CN2CCC1CC2` [Example 180, (3R)-3-[4-Benzyl-2-(3,4-methylenedioxyphenyl)-5-pyridyl]ethynyl-3-quinuclidinol]: 6.3 nM.

A further experiment deals with cholesterol biosynthesis. Briefly: Measurement of cholesterol biosynthesis inhibitive activity in a rat. It counts as in vivo. The following applies: 2 h; male SD rat, oral, dose 3 mg/kg, inhibition rate to control group. The protocol: Measurement of Cholesterol Biosynthesis Inhibitive Activity in a Rat
(I) An SPF grade male SD rat (4 weeks age, SLC) was bred for more than one week in a day-night-reversal room and subjected to an experiment made in the daytime. The compound dissolved in a 2% Tween 80 solution was administered (5 ml/kg) to the rat using an oral sonde. After one hour, a [1-^14C]Acetic acid, sodium salt (1.67-2.22 GBq/mmol, 37 MBq/ml, NEN) prepared by diluting to 1.85 MBq/ml by using physiological saline was intraabdominally administered (300 μ1/animal). After one hour, the rat was anesthetized by diethyl ether to carry out exsanguination from the aorta abdominalis. The collected blood was centrifuged at 3000 rpm for 10 minutes to prepare blood plasma.
(II) 1 ml of 4N KOH and 1 ml of ethanol were added to 2 ml of the blood plasma, which was then incubated at 65° C. for one hour and there after, 3 ml of petroleum ether was added. The plasma was shaken for 30 minutes. After the water phase was separated from the organic phase by centrifugation, it was frozen at −80° C. and the radiative activity of the organic phase was measured using a liquid scintillation counter. Or the organic phase was evaporated to dryness using nitrogen gas and the residue was dissolved as a marker in 25 µl of chloroform containing squalene, farnesol and cholesterol. This sample was applied to a TCL plate (Merck) and developed using toluene and isopropyl ether (1:1) for 15 to 20 minutes. A band of cholesterol was cut from the plate to measure the radiative activity by using a liquid scintillation counter. The cholesterol biosynthesis inhibition activity was expressed by an inhibition rate (%) to a control group.
In turn, `COCCOc1cc(Cc2ccccc2)c(C#CC2(O)CN3CCC2CC3)cn1` (stereo not drawn) [Example 6, 3-[4-Benzyl-2-(2-methoxyethoxy)-5-pyridyl]ethynyl-3-quinuclidinol] had an inhibition in vivo at 3 mg/kg of 73%.
On to `COCCCNc1ccc(C#CC2(O)CN3CCC2CC3)c(Cc2ccccc2)n1` (stereo not drawn) [Example 11, 3-[2-Benzyl-6-(3-methoxypropylamino)-3-pyridyl)ethynyl-3-quinuclidinol], for which the inhibition in vivo at 3 mg/kg worked out at 72%.
For `COCCOc1ccc(C#CC2(O)CN3CCC2CC3)c(Cc2ccccc2)n1` (stereo not drawn) [Example 12, 3-[2-Benzyl-6-(2-methoxyethyloxy)-3-pyridyl)ethynyl-3-quinuclidinol], 3 mg/kg produced 78% inhibition in vivo.
Compound `COCCCOc1ccc(C#CC2(O)CN3CCC2CC3)c(Cc2ccccc2)n1` (stereo not drawn) [Example 13, 3-[2-Benzyl-6-(3-methoxypropyloxy)-3-pyridyl]ethynyl-3-quinuclidinol] registered an inhibition in vivo at 3 mg/kg of 87%.
For the compound `CO[C@@H]1CN(c2ccc(C#C[C@@]3(O)CN4CCC3CC4)c(Cc3ccccc3)n2)C(=O)[C@@H]1OC` [Example 123, (3R)-3-[2-Benzyl-6-[(3R,4R)-3,4-dimethoxy-2-pyrrolidinone-1-yl]-3-pyridyl]ethynyl-3-quinuclidinol], at 3 mg/kg the inhibition in vivo was 86%.
Still for that read-out and setting: for `COCCOc1ccc(C#C[C@@]2(O)CN3CCC2CC3)c(Cc2ccccc2)n1` [Example 147, (3R)-3-[2-Benzyl-6-(2-methoxyethyl)oxy-3-pyridyl]ethynyl-3-quinuclidinol] the value was 87%.
